Experimental data: US8362012B2, “Benzoxazine benzimidazole derivative, a pharmaceutical composition comprising the same, and a use thereof” (Daewoong Pharmaceutical Co., Ltd., priority 2008, dated 2013)
pIC50: −log10 of the molar value.

These molecules were tested against T1, human vanilloid-1 (hVR-1) in hVR-1-HEK293 cell line (Homo sapiens, UniProt Q8NER1) (assay: Inhibitory effect on calcium influx via a vanilloid receptor (capsaicin-stimulated, Fluo-3/AM)). Conditions: hVR-1-HEK293 cells, 1 μM of capsaicin, compounds 0.015˜2000 nM; read-out: I.A. (inhibitory activity), IC50 on intracellular calcium influx.
T1 construct: expressed in transfected cells; host or cells: HEK293 Tet-on strain, doxycycline-induced
Assay type: cell-based
Method: The cell line can modulate the expression of VR-1, depending on whether doxycycline, a derivative of tetracycline, is present or not. […] Specifically, hVR-1-HEK293 cells were cultured in a T75 flask to about 80% confluency, separated from the flask by treating with trypsin solution, and then collected by centrifugation. The cells were suspended in a medium containing 1 μg/mL of doxycycline, and the resulting suspension was diluted to a concentration of 2˜4×10^5 cells/mL […], of the cell suspension was placed in each well of a 96-well black plate. The cells were cultured in 5% CO2 incubator at 37° C. for 2 days, and used for the following procedure. […] The cells prepared in 1) above were cultured at 37° C. for 90 min in a solution containing Fluo-3/AM, a fluorescent dye, as a calcium indicator so that the fluorescent dye was permeated into the cells. […] In order to stimulate calcium influx through a vanilloid receptor, the cells were treated with 1 μM of capsaicin. […] The obtained data were input to the Hill equation represented by the following formula I and the values were analyzed: Intracellular calcium influx= [(fluorescent intensity of experimental group−fluorescent intensity of background)/(fluorescent intensity of positive control−fluorescent intensity of background)]*100 [Formula I] The inhibitory activities were evaluated from the obtained intracellular calcium influx values according to the following criteria.

T1 sequence (Q8NER1 whole entry): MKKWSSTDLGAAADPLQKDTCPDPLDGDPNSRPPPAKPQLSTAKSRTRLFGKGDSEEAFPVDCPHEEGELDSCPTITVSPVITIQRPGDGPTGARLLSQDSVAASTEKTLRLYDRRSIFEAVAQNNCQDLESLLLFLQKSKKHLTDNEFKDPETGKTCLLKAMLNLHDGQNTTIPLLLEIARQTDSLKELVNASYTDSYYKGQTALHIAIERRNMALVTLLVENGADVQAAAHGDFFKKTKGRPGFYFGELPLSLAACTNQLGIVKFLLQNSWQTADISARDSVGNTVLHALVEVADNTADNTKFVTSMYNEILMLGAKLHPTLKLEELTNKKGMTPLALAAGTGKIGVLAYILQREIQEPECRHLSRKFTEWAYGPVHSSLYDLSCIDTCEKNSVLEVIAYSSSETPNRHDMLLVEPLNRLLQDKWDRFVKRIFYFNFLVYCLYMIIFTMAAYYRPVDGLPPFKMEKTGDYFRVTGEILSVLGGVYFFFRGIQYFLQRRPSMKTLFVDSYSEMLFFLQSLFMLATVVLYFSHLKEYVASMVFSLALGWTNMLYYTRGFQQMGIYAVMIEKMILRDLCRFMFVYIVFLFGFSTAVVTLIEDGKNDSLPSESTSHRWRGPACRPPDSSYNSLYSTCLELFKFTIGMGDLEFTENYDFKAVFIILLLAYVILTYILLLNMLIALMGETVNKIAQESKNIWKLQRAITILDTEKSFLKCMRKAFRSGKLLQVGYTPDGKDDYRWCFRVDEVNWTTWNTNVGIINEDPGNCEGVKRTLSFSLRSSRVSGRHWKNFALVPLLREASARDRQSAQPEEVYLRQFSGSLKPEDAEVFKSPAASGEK

CC(C)(C)c1ccc2nc(-c3cccc4c3OCCN4c3ncccc3Cl)[nH]c2c1 [Example 6, 8-(6-tert-butyl-1H-benzimidazol-2-yl)-4-(3-chloro-pyridin-2-yl)-3,4-dihydro-2H-benzo[1,4]oxazine] and FC(F)(F)c1ccc2nc(-c3cccc4c3OCCN4c3ncccc3Cl)[nH]c2c1 [Example 16, 4-(3-chloro-pyridin-2-yl)-8-(6-trifluoromethyl-1H-benzimidazol-2-yl)-3,4-dihydro-2H-benzo[1,4]oxazine] fall in the same range of pIC50: 6.30 to 7.00 for the first, 6.30 to 7.00 for the second.

CC(C)(C)c1ccc2nc(-c3cccc4c3OCCN4c3ncccc3C(F)(F)F)[nH]c2c1 [Example 7, 8-(6-tert-butyl-1H-benzimidazol-2-yl)-4-(3-trifluoromethyl-pyridin-2-yl)-3,4-dihydro-2H-benzo[1,4]oxazine] and FC(F)(F)c1ccc2nc(-c3cccc4c3OCCN4c3ncccc3C(F)(F)F)[nH]c2c1 [Example 17, 8-(6-trifluoromethyl-1H-benzimidazol-2-yl)-4-(3-trifluoromethyl-pyridin-2-yl)-3,4-dihydro-2H-benzo[1,4]oxazine] cannot be ordered by pIC50: under 6.00 for the first, under 6.00 for the second.

CC(C)(C)c1ccc2nc(-c3cccc4c3OCCN4c3ccc(C(F)(F)F)cn3)[nH]c2c1 [Example 8, 8-(6-tert-butyl-1H-benzimidazol-2-yl)-4-(5-trifluoromethyl-pyridin-2-yl)-3,4-dihydro-2H-benzo[1,4]oxazine] and CC(C)(C)c1ccc2nc(-c3cccc4c3OCCN4c3ncc(C(F)(F)F)cc3Cl)[nH]c2c1 [Example 9, 8-(6-tert-butyl-1H-benzimidazol-2-yl)-4-(3-chloro-5-trifluoromethyl-pyridin-2-yl)-3,4-dihydro-2H-benzo[1,4]oxazine] fall in the same range of pIC50: 6.30 to 7.00 for the first, 6.30 to 7.00 for the second.

First: Cc1ccc(N2CCOc3c(-c4nc5cc(C(C)(C)C)ccc5[nH]4)cccc32)nc1 [Example 10, 8-(5-tert-butyl-1H-benzimidazol-2-yl)-4-(5-methyl-pyridin-2-yl)-3,4-dihydro-2H-benzo[1,4]oxazine]
Second: CC(C)(C)c1ccc2[nH]c(-c3cccc4c3OCCN4c3ccc(Br)cn3)nc2c1 [Example 13, 4-(5-bromo-pyridin-2-yl)-8-(5-tert-butyl-1H-benzimidazol-2-yl)-3,4-dihydro-2H-benzo[1,4]oxazine]
The pIC50 of the first is higher: over 7.70 for the first, 7.00 to 7.70 for the second.

CC(C)(C)c1ccc2[nH]c(-c3cccc4c3OCCN4c3ncc(Cl)cc3Cl)nc2c1 [Example 11, 8-(5-tert-butyl-1H-benzimidazol-2-yl)-4-(3,5-dichloro-pyridin-2-yl)-3,4-dihydro-2H-benzo[1,4]oxazine] and CC(C)(C)c1ccc2[nH]c(-c3cccc4c3OCCN4c3ccc(Cl)cn3)nc2c1 [Example 14, 8-(5-tert-butyl-1H-benzimidazol-2-yl)-4-(5-chloro-pyridin-2-yl)-3,4-dihydro-2H-benzo[1,4]oxazine] fall in the same range of pIC50: 7.00 to 7.70 for the first, 7.00 to 7.70 for the second.

CC(C)(C)c1ccc2[nH]c(-c3cccc4c3OCCN4c3ccccn3)nc2c1 [Example 12, 8-(5-tert-butyl-1H-benzimidazol-2-yl)-4-pyridin-2-yl-3,4-dihydro-2H-benzo[1,4]oxazine] and CC(C)(C)c1ccc2[nH]c(-c3cccc4c3OCCN4c3ccc(CO)cn3)nc2c1 [Example 15, 6-[8-(5-tert-butyl-1H-benzimidazol-2-yl)-2,3-dihydro-benzo[1,4]oxazin-4-yl]-pyridin-3-yl-methanol] fall in the same range of pIC50: 6.30 to 7.00 for the first, 6.30 to 7.00 for the second.

First: Clc1cccnc1N1CCOc2c(-c3nc4ccc(Br)cc4[nH]3)cccc21 [Example 21, 8-(6-bromo-1H-benzimidazol-2-yl)-4-(3-chloro-pyridin-2-yl)-3,4-dihydro-2H-benzo[1,4]oxazine]
Second: Clc1ccc2nc(-c3cccc4c3OCCN4c3ncccc3Cl)[nH]c2c1 [Example 22, 8-(6-chloro-1H-benzimidazol-2-yl)-4-(3-chloro-pyridin-2-yl)-3,4-dihydro-2H-benzo[1,4]oxazine]
The pIC50 of the first is higher: 6.30 to 7.00 for the first, under 6.00 for the second.

Cc1ccc(N2CCOc3c(-c4nc5ccc(Br)cc5[nH]4)cccc32)nc1 [Example 26, 8-(6-bromo-1H-benzimidazol-2-yl)-4-(5-methyl-pyridin-2-yl)-3,4-dihydro-2H-benzo[1,4]oxazine] and Cc1ccc(N2CCOc3c(-c4nc5cc(Cl)ccc5[nH]4)cccc32)nc1 [Example 27, 8-(5-chloro-1H-benzimidazol-2-yl)-4-(5-methyl-pyridin-2-yl)-3,4-dihydro-2H-benzo[1,4]oxazine] fall in the same range of pIC50: 6.30 to 7.00 for the first, 6.30 to 7.00 for the second.

Cc1ccc(N2CCOc3c(-c4nc5c(Cl)cc(C(F)(F)F)cc5[nH]4)cccc32)nc1 [Example 29, 8-(4-chloro-6-trifluoromethyl-1H-benzimidazol-2-yl)-4-(5-methyl-pyridin-2-yl)-3,4-dihydro-2H-benzo[1,4]oxazine] and Cc1ccc(N2CCOc3c(-c4nc5c(C(F)(F)F)cc(C(F)(F)F)cc5[nH]4)cccc32)nc1 [Example 30, 8-(4,6-bis-trifluoromethyl-1H-benzimidazol-2-yl)-4-(5-methyl-pyridin-2-yl)-3,4-dihydro-2H-benzo[1,4]oxazine] fall in the same range of pIC50: 6.30 to 7.00 for the first, 6.30 to 7.00 for the second.

First: Cc1ccc(N2CCOc3c(-c4nc5c(Br)cc(Br)cc5[nH]4)cccc32)nc1 [Example 32, 8-(4,6-dibromo-1H-benzimidazol-2-yl)-4-(5-methyl-pyridin-2-yl)-3,4-dihydro-2H-benzo[1,4]oxazine]
Second: Cc1ccc(N2c3cccc(-c4nc5c(Br)cc(OC(F)(F)F)cc5[nH]4)c3OC[C@@H]2CO)nc1 [Example 54, [(S)-8-(4-bromo-6-trifluoromethoxy-1H-benzimidazol-2-yl)-4-(5-methyl-pyridine-2-yl)-3,4-dihydro-2H-benzo[1,4]oxazin-3-yl]-methanol]
The pIC50 of the first is lower: 6.30 to 7.00 for the first, over 7.70 for the second.

Compared with Cc1ccc(N2c3cccc(-c4nc5c(F)cc(F)cc5[nH]4)c3OC[C@@H]2CO)nc1 [Example 55, [(S)-8-(4,6-difluoro-1H-benzo[d]imidazol-2-yl)-4-(5-methyl-pyridin-2-yl)-3,4-dihydro-2H-benzo[b][1,4]oxazin-3-yl]-methanol], C=Cc1ccc(N2c3cccc(-c4nc5c(F)cc(F)cc5[nH]4)c3OC[C@@H]2CO)nc1 [Example 63, [(S)-8-(4,6-difluoro-1H-benzimidazol-2-yl)-4-(5-vinyl-pyridin-2-yl)-3,4-dihydro-2H-benzo[1,4]oxazin-3-yl]-methanol] is lower in pIC50: over 7.70 for the first, 7.00 to 7.70 for the second.

First: Cc1ccc(N2c3cccc(-c4nc5ccc(C#N)cc5[nH]4)c3OC[C@@H]2CO)nc1 [Example 56, (S)-2-(3-(hydroxymethyl)-4-(5-methyl-pyridin-2-yl)-3,4-dihydro-2H-benzo[b][1,4]oxazin-8-yl)-1H-benzo[d]imidazol-6-carbonitrile]
Second: C=Cc1ccc(N2c3cccc(-c4nc5ccc(F)cc5[nH]4)c3OC[C@@H]2CO)nc1 [Example 61, [(S)-8-(6-fluoro-1H-benzimidazol-2-yl)-4-(5-vinyl-pyridin-2-yl)-3,4-dihydro-2H-benzo[1,4]oxazin-3-yl]-methanol]
The pIC50 of the first is lower: 6.30 to 7.00 for the first, 7.00 to 7.70 for the second.

C=Cc1ccc(N2c3cccc(-c4nc5ccc(C(C)(C)C)cc5[nH]4)c3OC[C@@H]2CO)nc1 [Example 57, [(S)-8-(6-tert-butyl-1H-benzimidazol-2-yl)-4-(5-vinyl-pyridin-2-yl)-3,4-dihydro-2H-benzo[1,4]oxazin-3-yl]-methanol] and C=Cc1ccc(N2c3cccc(-c4nc5ccc(C(F)(F)F)cc5[nH]4)c3OC[C@@H]2CO)nc1 [Example 58, [(S)-8-(6-trifluoromethyl-1H-benzimidazol-2-yl)-4-(5-vinyl-pyridin-2-yl)-3,4-dihydro-2H-benzo[1,4]oxazin-3-yl]-methanol] fall in the same range of pIC50: 7.00 to 7.70 for the first, 7.00 to 7.70 for the second.

C=Cc1ccc(N2c3cccc(-c4nc5c(F)cc(Br)cc5[nH]4)c3OC[C@@H]2CO)nc1 [Example 62, [(S)-8-(6-bromo-4-fluoro-1H-benzimidazol-2-yl)-4-(5-vinyl-pyridin-2-yl)-3,4-dihydro-2H-benzo[1,4]oxazin-3-yl]-methanol] and C=Cc1ccc(N2c3cccc(-c4nc5c(Br)cc(C(F)(F)F)cc5[nH]4)c3OC[C@@H]2CO)nc1 [Example 64, [(S)-8-(4-bromo-6-trifluoromethyl-1H-benzimidazol-2-yl)-4-(5-vinyl-pyridin-2-yl)-3,4-dihydro-2H-benzo[1,4]oxazin-3-yl]-methanol] cannot be ordered by pIC50: over 7.70 for the first, over 7.70 for the second.

Compared with C=Cc1ccc(N2c3cccc(-c4nc5c(Cl)cc(C(F)(F)F)cc5[nH]4)c3OC[C@@H]2CO)nc1 [Example 65, [(S)-8-(4-chloro-6-trifluoromethyl-1H-benzimidazol-2-yl)-4-(5-vinyl-pyridin-2-yl)-3,4-dihydro-2H-benzo[1,4]oxazin-3-yl]-methanol], C=Cc1ccc(N2c3cccc(-c4nc5c(C(F)(F)F)cc(C(F)(F)F)cc5[nH]4)c3OC[C@@H]2CO)nc1 [Example 71, ((S)-8-(4,6-bis(trifluoromethyl)-1H-benzo[d]imidazol-2-yl)-4-(5-vinyl-pyridin-2-yl)-3,4-dihydro-2H-benzo[b][1,4]oxazin-3-yl)-methanol] is lower in pIC50: over 7.70 for the first, 6.30 to 7.00 for the second.

Work on C=Cc1ccc(N2c3cccc(-c4nc5cc(F)c(Cl)cc5[nH]4)c3OC[C@@H]2CO)nc1 [Example 70, [(S)-8-(6-chloro-5-fluoro-1H-benzimidazol-2-yl)-4-(5-vinyl-pyridin-2-yl)-3,4-dihydro-2H-benzo[1,4]oxazin-3-yl]-methanol] yielded a pIC50 of 7.00 to 7.70.
